What all share (test): ≥ marks a high value that may be exact or a test limit, other limits are often not marked, values filed in µg/mL are converted to µM
Experiment [1] deals with Pseudomonas aeruginosa BH04.
The subject of experiment [2] is Pseudomonas aeruginosa BH01.
Experiment [3] concerns Pseudomonas aeruginosa BH02.
In experiment [4] the test system is Pseudomonas aeruginosa PAO1.
Experiment [5] has as its system Pseudomonas aeruginosa BH03.
Experiment [6] concerns Salmonella typhimurium KCTC 1926.
For experiment [7], the system named is Salmonella typhimurium CCARM 8013.
Experiment [8] has as its system Escherichia coli CCARM 1238.
The subject of experiment [9] is Staphylococcus aureus CCARM 3114.
The test system of experiment [10] is Staphylococcus aureus ATCC 25923.
Experiment [11] has as its system Pseudomonas aeruginosa ATCC 27853.
For experiment [12], the system named is Salmonella typhimurium CCARM 8009.
Experiment [13] relates to Pseudomonas aeruginosa 3592.
In experiment [14] the test system is Listeria monocytogenes KCTC 3710.
The subject of experiment [15] is Escherichia coli NBRC 3972.
Experiment [16] deals with Pseudomonas aeruginosa NBRC 13275.
Experiment [17] has as its system Staphylococcus aureus NBRC 13276.
For experiment [18], the system named is Enterococcus faecalis.
Experiment [19] relates to Shigella dysenteriae.
The subject of experiment [20] is Aeromonas sobria.
Experiment [21] relates to Aspicilia cinerea.
For experiment [22], the system named is Candida glabrata 1.
The subject of experiment [23] is Klebsiella oxytoca.
The subject of experiment [24] is Candida glabrata.
Experiment [25] relates to Aeromonas veronii.
Experiment [26] relates to Vibrio anguillarum.
In experiment [27] the test system is Acinetobacter baumannii.
Experiment [28] concerns Vibrio cholerae.
The subject of experiment [29] is Vibrio parahaemolyticus.
Experiment [30] concerns Candida albicans.
The subject of experiment [31] is Nocardia asteroides.
Experiment [32] relates to Pseudomonas aeruginosa.
Experiment [33] concerns Staphylococcus epidermidis.
In experiment [34] the test system is Bacillus cereus.
Experiment [35] relates to Vibrio harveyi.
Experiment [36] deals with Salmonella enterica subsp. enterica serovar Paratyphi A.
In experiment [37] the test system is Aeromonas hydrophila.
Experiment [38] relates to Proteus vulgaris.
The test system of experiment [39] is Staphylococcus aureus.
The subject of experiment [40] is Escherichia coli ATCC 25922.
For experiment [41], the system named is Escherichia coli.
Experiment [42] deals with Stenotrophomonas maltophilia.
Experiment [43] deals with Stenotrophomonas maltophilia 2.
In experiment [44] the test system is Staphylococcus aureus 4.
For experiment [45], the system named is Bacillus subtilis.
The test system of experiment [46] is Escherichia coli 1.
Experiment [47] concerns Enterococcus faecium.
Experiment [48] relates to Proteus mirabilis.
In experiment [49] the test system is Staphylococcus aureus 1.
Experiment [50] deals with Klebsiella pneumoniae.

Converted amounts (≈) assume the structure as drawn. “And” between values parts separate entries of the source, which are not always exact repeats. Equal entries are not always repeated.

Consider `CC(=O)N[C@@H](CCC(=O)O)C(=O)N[C@@H](CCC(=O)O)C(=O)N[C@@H](CCC(=O)O)C(=O)N[C@@H](CCC(=O)O)C(=O)N[C@@H](C)C(=O)N[C@@H](C)C(=O)N[C@@H](C)C(=O)NCC(=O)N[C@@H](Cc1c[nH]c2ccccc12)C(=O)NCC(=O)N[C@@H](CC(C)C)C(=O)N[C@@H](CCCN=C(N)N)C(=O)N[C@@H](CCCN=C(N)N)C(=O)N[C@@H](CC(C)C)C(=O)N[C@@H](CC(C)C)C(=O)N[C@@H](CCCCN)C(=O)N[C@@H](Cc1ccc(O)cc1)C(=O)NCC(=O)N[C@@H](CCCCN)C(=O)N[C@@H](CCCN=C(N)N)C(=O)N[C@@H](CO)C(N)=O` [EEEEAAAGWGLRRLLKYGKRS], for which the MIC in experiment [1], in [2], in experiment [3], in experiment [4] and in experiment [5] was 26.4 µM (≈ 65.1 µg/mL) throughout.

Turning to `CC[C@H](C)[C@H](NC(=O)[C@H](Cc1c[nH]c2ccccc12)NC(=O)[C@H](CCCCN)NC(=O)[C@@H](NC(=O)[C@@H](N)CCCCN)[C@@H](C)CC)C(=O)N[C@@H](CC(C)C)C(=O)N[C@@H](CCCCN)C(=O)N[C@@H](Cc1ccc(O)cc1)C(=O)N[C@@H](Cc1c[nH]c2ccccc12)C(=O)N[C@@H](CCCCN)C(=O)N[C@@H](Cc1c[nH]c2ccccc12)C(=O)N[C@@H](CO)C(=O)O` [KIKWILKYWKWS], the MIC (as a rule, the smallest concentration in the dilution series that meets the test's criterion for growth inhibition) is 2 µM (≈ 3.36 µg/mL) in experiment [6]; 16 µM and ≥ 32 µM in experiment [7]; 4 µM and 8 µM in experiment [8]; 16 µM and ≥ 32 µM in experiment [9]; 0.25 µM (≈ 0.42 µg/mL) in experiment [10]; 4 µM and 8 µM in [11]. Also, the MIC in [12] was 8 µM (≈ 13.4 µg/mL); in experiment [13] it was 8 µM and 16 µM; in experiment [14] it was 4 µM (≈ 6.72 µg/mL).

As for `CC(=O)N[C@@H](CCCCN)C(=O)N[C@@H](CCCCN)C(=O)N[C@@H](C)C(=O)N[C@@H](CCCCN)C(=O)N[C@@H](CCCCN)C(=O)N[C@@H](C)C(=O)N[C@@H](CCCCN)C(=O)N[C@@H](CCCCN)C(=O)N[C@@H](C)C(N)=O` [KKAKKAKKA], the MIC in experiment [15], in experiment [16] and in experiment [17] was at least 800 µM in each case.

`CC[C@H](C)[C@H](NC(=O)CNC(=O)[C@H](Cc1c[nH]c2ccccc12)NC(=O)CNC(=O)[C@H](C)NC(=O)[C@H](C)NC(=O)[C@H](CCCCN)NC(=O)[C@H](CC(C)C)NC(=O)CNC(=O)CNC(=O)[C@H](CCCN=C(N)N)NC(=O)[C@H](CC(C)C)NC(=O)[C@H](CC(C)C)NC(=O)[C@H](Cc1c[nH]c2ccccc12)NC(=O)[C@H](CC(C)C)NC(=O)[C@H](Cc1c[nH]c2ccccc12)NC(=O)[C@H](CCCN=C(N)N)NC(=O)[C@@H](N)[C@@H](C)O)C(=O)N[C@@H](CCCN=C(N)N)C(=O)N[C@@H](C)C(=O)N[C@@H](Cc1cnc[nH]1)C(=O)N[C@@H](CC(C)C)C(=O)N[C@@H](CC(N)=O)C(=O)N[C@@H](CCCN=C(N)N)C(=O)N[C@@H](CC(N)=O)C(=O)N[C@@H](CCC(N)=O)C(=O)O` [TRWLWLLRGGLKAAGWGIRAHLNRNQ]: the MIC in experiment [18] was at least 65.7 µM; in [19], 12.3 µM (≈ 37.5 µg/mL); in experiment [20], 12.3 µM (≈ 37.5 µg/mL); in [21], at least 65.7 µM; in [22], at least 65.7 µM; in [23], at least 65.7 µM. Moreover, the MIC was 12.3 µM (≈ 37.5 µg/mL) in experiment [24]; 24.6 µM (≈ 75 µg/mL) in [25]; 6.16 µM (≈ 18.8 µg/mL) in [26]; at least 65.7 µM in [27]; 12.3 µM (≈ 37.5 µg/mL) in experiment [28]; 12.3 µM (≈ 37.5 µg/mL) in experiment [29]. The MIC in experiment [30] was above 65.7 µM; in [31], 6.16 µM (≈ 18.8 µg/mL); in [32] it was 6.16 µM (≈ 18.8 µg/mL); in experiment [33], at least 65.7 µM; in experiment [34], at least 65.7 µM; in experiment [35], 12.3 µM (≈ 37.5 µg/mL). Further, the MIC was 12.3 µM (≈ 37.5 µg/mL) in experiment [36]; 12.3 µM (≈ 37.5 µg/mL) in experiment [37]; at least 65.7 µM in experiment [38]; 12.3 µM (≈ 37.5 µg/mL) in [39]; 3.08 µM (≈ 9.38 µg/mL) in experiment [40]; 4.36 µM (≈ 13.3 µg/mL) in experiment [41]. In addition, the MIC in [42] was at least 65.7 µM; in experiment [10] it was above 65.7 µM; in experiment [43], 6.16 µM (≈ 18.8 µg/mL); in [11], 12.3 µM (≈ 37.5 µg/mL); in [44] it was 3.08 µM (≈ 9.38 µg/mL); in [45], 3.08 µM (≈ 9.38 µg/mL). Also, the MIC is 1.54 µM (≈ 4.69 µg/mL) in [46]; at least 65.7 µM in experiment [47]; 3.08 µM (≈ 9.38 µg/mL) in experiment [48]; at least 65.7 µM in experiment [49]; 3.08 µM (≈ 9.38 µg/mL) in [50].

The values above are taken from DBAASP.
